Measurements as given in ChEMBL document CHEMBL3217417, “PRIMACINS, N-cinnamoyl-primaquine conjugates, with improved liver-stage antimalarial activity” (Medchemcomm, 2012).

How the values were obtained:
[1] = tested on: Plasmodium berghei; test: Ratio of primaquine IC50 to compound IC50 against liver stage of Plasmodium berghei sporozoites expressing firefly luciferase infected in human Huh7 cells; format: functional, Huh-7
[2] = Cytotoxicity against human HuH7 cells assessed as cell viability by alamarblue assay; format: cell-based; settings: huh-7
[3] = tested on: Plasmodium berghei; test: Antiplasmodial activity against liver stage of Plasmodium berghei sporozoites expressing firefly luciferase infected in human Huh7 cells assessed as inhibition of parasite development treated 1 hr prior to infection followed by compound replenisment at 24 hrs post-infection measured 48 hrs after infection by bioluminescence analysis; format: functional, organism-based; settings: Huh-7, Liver
[4] = tested on: Plasmodium falciparum; test: Antiplasmodial activity against erythrocyte stage of Plasmodium falciparum W2 assessed as growth inhibition after 48 hrs by flow cytometry; format: functional, organism-based; settings: W2, 48 h

Row | Compound | IC50 [3] | Ratio IC50 [1] | Activity [2] | IC50 [4]
1 | COc1cc(NC(C)CCCNC(=O)/C=C/c2ccccc2[N+](=O)[O-])c2ncccc2c1 (centres undefined) | 2360 nM | >2 | Non-toxic | ≥ 10000 nM
2 | C[C@@H]1CC[C@H]2[C@@H](C)C(=O)O[C@@H]3O[C@@]4(C)CC[C@@H]1[C@]32OO4 [ARTEMISININ] | – | – | – | 5.64 nM
3 | COc1cc(NC(C)CCCNC(=O)/C=C/c2ccc([N+](=O)[O-])cc2)c2ncccc2c1 (centres undefined) | 2240 nM | >2 | Non-toxic | ≥ 10000 nM
4 | COc1cc(NC(C)CCCNC(=O)/C=C/c2ccc(Cl)cc2)c2ncccc2c1 (centres undefined) | 2390 nM | >2 | Non-toxic | ≥ 10000 nM
5 | COc1cc(NC(C)CCCNC(=O)/C=C/c2ccc(F)cc2)c2ncccc2c1 (centres undefined) | 2330 nM | >2 | Non-toxic | ≥ 10000 nM
6 | COc1ccc(/C=C/C(=O)NCCCC(C)Nc2cc(OC)cc3cccnc23)cc1 (centres undefined) | – | >2 | Non-toxic | ≥ 10000 nM
7 | COc1cc(NC(C)CCCNC(=O)/C=C/c2ccc(C)cc2)c2ncccc2c1 (centres undefined) | 2130 nM | >2 | Non-toxic | ≥ 10000 nM

Further compounds by falling IC50 [3], results first:

Row | IC50 [3] | Compound | Ratio IC50 [1] | Activity [2] | IC50 [4]
8 | 2120 nM | COc1cc(NC(C)CCCNC(=O)/C=C/c2cccc([N+](=O)[O-])c2)c2ncccc2c1 (centres undefined) | >2 | Non-toxic | ≥ 10000 nM
9 | 2010 nM | COc1cc(NC(C)CCCNC(=O)/C=C/c2ccccc2)c2ncccc2c1 (centres undefined) | >2 | Non-toxic | ≥ 10000 nM
10 | 1630 nM | COc1cc(NC(C)CCCNC(=O)/C=C/c2cccc(F)c2)c2ncccc2c1 (centres undefined) | >2 | Non-toxic | ≥ 10000 nM
11 | 1540 nM | COc1cc(NC(C)CCCNC(=O)/C=C/c2ccc(C(C)C)cc2)c2ncccc2c1 (centres undefined) | >2 | Non-toxic | 4840 nM
12 | 1380 nM | COc1cc(NC(C)CCCNC(=O)/C=C/c2ccc(Br)cc2)c2ncccc2c1 (centres undefined) | >2 | Non-toxic | ≥ 10000 nM
